Experiments:
[1] = tested on: cells dissociated directly from patient tumors (FLC.T6-T11); assay: Direct from patient in vitro screening; type: cell-based, human; details: for Sensitivity of cells tested directly from patients: 10μM-10nM, 72h, Cell Titer Glo; for Drug sensitivity of FLC.T6 compared with derived PDX FLC6 (EC50): cells direct from patient tumor vs cells from its PDX
[2] = tested on: FLC1 cells; assay: Role of ROS: survival with or without N-acetyl cysteine 10mM; type: cell-based, human; details: NAC 10mM, 72 h
[3] = tested on: FLC PDX cells; assay: Validation screen on cells dissociated from FLC PDX; type: cell-based, human; details: for Effect on FLC PDX cells in vitro (dose response, normalized percent survival): 10nM-10μM, FLC1-6; for Efficacy ranking in the screen: ranked by average −log10EC50 for FLC1-5 minus −log10EC50 for PHH
[4] = tested on: FLC5 cells; assay: Anchor screen, synergy assay; type: cell-based, human; details: FLC5, ZIP, Bliss and HSA scores
[5] = tested on: cells dissociated from PDX FLC1 and FLC5; assay: Primary high throughput screen, 1μM, 72 h; type: cell-based, human; details: pass = survival <60%
[6] = tested on: FLC PDX; assay: In vivo drug testing of HDAC inhibitors in mice bearing PDX
[7] = tested on: primary human hepatocytes (PHH); assay: Validation counter-screen on primary human hepatocytes; details: 72 h

Row | Molecule | Sensitivity of cells tested directly from patients [1] | Effect of N-acetyl cysteine (NAC) on the toxicity of the drug [2] | Efficacy ranking in the screen [3] | Synergy with A1331852 [4] | also measured
1 | CC(C)c1c2cc(-c3ccnc(NC4CCC(NC5CCOCC5)CC4)n3)ccc2nn1C (centres unmarked) [LY2857785] | some sensitivity | mildly attenuated |  |  | 
2 | CCc1c2c(nc3ccc(O)cc13)-c1cc3c(c(=O)n1C2)COC(=O)[C@]3(O)CC [SN-38] | sensitive | no effect | 13 |  | Effect on FLC PDX cells in vitro (dose response, normalized percent survival) ([3]; 72 h): effective only against FLC1,3,4; Drug sensitivity of FLC.T6 compared with derived PDX FLC6 (EC50) [1]: correlated well
3 | CC(=O)Nc1cccc(-n2c(=O)n(C3CC3)c(=O)c3c(Nc4ccc(I)cc4F)n(C)c(=O)c(C)c32)c1 [trametinib] |  |  |  | some synergy | Result in primary screen (normalized percent survival) [5]: None
4 | C=CC(=O)N1CC/C(=C\c2ccc(F)c([N+](=O)[O-])c2)C(=O)/C(=C/c2ccc(F)c([N+](=O)[O-])c2)C1 [VLX1570] | blunted response | completely abrogated | 31 |  | Drug sensitivity of FLC.T6 compared with derived PDX FLC6 (EC50) [1]: outliers
5 | CNC(=O)c1cccc(-c2ccc3c(N4CCOC[C@@H]4C)nc(N4CCOC[C@@H]4C)nc3n2)c1 [visusertib] |  |  |  | some synergy | 
6 | Cn1cc(CNCC2CCN(c3ncc(C(=O)NO)cn3)CC2)c2ccccc21 [quisinostat] | sensitive | mildly attenuated |  |  | Tumor growth at 14 days ([6]; 10mg/kg IP): 7%; Apoptosis as assayed by TUNEL ([6]; 10mg/kg, after 14 days): no significant increase; Mitotic figures, Ki67 and pHH3 positive cells in tumors ([6]; 10mg/kg, after 14 days): almost complete disappearance; Macroscopic assessment of tumors ([6]; quisinostat 10mg/kg daily IP, 14 days): necrosis in the drug treated tumors
7 | SBI-0640756 | sensitive | completely abrogated | 19 |  | Therapeutic window for FLC over PHH ([3]; FLC PDX cells compared with PHH): clear therapeutic window
8 | Cc1ccc(S(=O)(=O)c2ccc([N+](=O)[O-])o2)cc1 [NSC697923] | blunted response | completely abrogated | 7 |  | Drug sensitivity of FLC.T6 compared with derived PDX FLC6 (EC50) [1]: outliers
9 | CC(=O)[C@]1(O)Cc2c(O)c3c(c(O)c2[C@@H](O[C@H]2C[C@H](N)[C@H](O)[C@H](C)O2)C1)C(=O)c1ccccc1C3=O [idarubicin] |  |  |  | some synergy | Effect on FLC PDX cells in vitro (dose response, normalized percent survival) ([3]; 72 h): showed an effect on some of the FLC PDX
10 | Cc1ccc(NC2=CC(=O)c3sc(C)nc3C2=O)cc1 [ryuvidine] |  | completely abrogated | third |  | Effect on FLC PDX cells in vitro (dose response, normalized percent survival) ([3]; 72 h): effective against all PDX lines; EC50 ([3]; read-out: EC50 against FLC PDX in vitro, across all FLC PDX lines, 72 h): 0.02 to 0.2 µM; EC50 ([7]; read-out: EC50 PHH): > 10 µM
11 | CONC(=O)[C@H]1[C@@H](O)[C@@]2(O)c3c(OC)cc(OC)cc3O[C@@]2(c2ccc(OC)cc2)[C@@H]1c1ccccc1 [CR-1-31-B] | sensitive |  |  |  | Effect on PHH (dose response, normalized percent survival) ([7]; up to 10 μM): no effect
12 | CC[C@@]1(O)C(=O)OCc2c1cc1n(c2=O)Cc2cc3c(CN(C)C)c(O)ccc3nc2-1 [topotecan] |  |  |  | some synergy | 

Reference: paper PMC8734228 (Cancer discovery, 2021)
